Data on 13 compounds can be found in PubChem BioAssay (NCI).

Holding throughout (test): NCI tumour cell line growth inhibition, 48 h
In assay [1] the test system is COLO 205 colon.
Assay [2] has as its system MALME-3M melanoma.
Assay [3] concerns HT29 colon.
The subject of assay [4] is EKVX NSCLC.
In assay [5] the test system is MCF7 breast.
For assay [6], the system named is M14 melanoma.
In assay [7] the test system is CAKI-1 renal.
In assay [8] the test system is LOX IMVI melanoma.
Assay [9] has as its system NCI-H460 lung.
Assay [10] relates to HCC-2998 colon.

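Where inhibition never reached the appropriate level, the endpoint shown equals the highest concentration tested. Otherwise, values were interpolated linearly from a five-concentration, 48-hour dose response in 96-well plates. GI50 = concentration required for 50% inhibition of growth. TGI is the concentration that stops growth completely.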 Some results are limits rather than exact numbers.

Regarding `O=C1c2cc3c(cc2-c2c1c1ccc(F)cc1c(=O)n2C[C@H](O)[C@H](O)[C@H](O)CO)OCO3`, the GI50 is 0.193 µM in assay [1]; 0.209 µM in assay [2]; 0.142 µM in assay [3]; 0.357 µM in [4]; 0.0259 µM in assay [5]; 0.18 µM in assay [6]. Besides, the TGI in assay [1] is 0.959 µM; in assay [2], 0.831 µM; in assay [3] it was 0.397 µM; in assay [4], 4.63 µM; in assay [5], 0.215 µM; in assay [6] it was 4 µM.

Regarding `CO/C=C(\Br)c1ccc2c(c1)OCO2`, the TGI in assay [2], in [4], in [6] and in assay [7] was more than 100 µM each time.

On to `C[C@]12CCc3nonc3C1CC[C@@H]1C2CC[C@@]2(C)C1CC[C@@H]2O` (some centres undefined), for which the TGI in assay [1], in [8], in assay [2], in assay [3], in assay [4] and in assay [9] was more than 100 µM each time. Also, the TGI in [6], in [10] and in [7] was more than 100 µM each time.

As for `OCCN(CCO)c1nc(N2CCCCC2)c2nc(N(CCO)CCO)nc(N3CCCCC3)c2n1`, the TGI in [1] was more than 100 µM; in assay [8], more than 100 µM; in [2], 46 µM; in assay [3], 40 µM; in assay [4], more than 100 µM; in assay [9], more than 100 µM. The TGI is more than 100 µM in assay [6], 36.4 µM in assay [10] and more than 100 µM in assay [7].

Turning to `CCCCCCCC(=O)OCC1OC(n2cc(F)c(=O)[nH]c2=O)C(N)C(O)C1O` (centres undefined), the TGI in assay [1], in assay [2], in assay [3], in assay [4], in [9] and in assay [6] was more than 100 µM each time. Moreover, the TGI in [10] and in [7] was more than 100 µM throughout.

Regarding `N#CC1(N2CCCC2)CCC2(CC1)OCCO2`, the TGI is more than 10 µM in assay [1]; more than 100 µM in assay [8]; more than 100 µM in assay [2]; more than 100 µM in assay [3]; more than 100 µM in assay [4]; more than 100 µM in assay [9]. In addition, the TGI in [6], in [10] and in assay [7] was more than 100 µM throughout.

For `CC(=O)[CH-]C(C)=O.CC(=O)[CH-]C(C)=O.[Cl-].[O]=[V]`, the GI50 is 18.2 µM in assay [1]; 14.9 µM in assay [8]; 9.76 µM in assay [2]; 30.3 µM in assay [4]; 46.2 µM in [9]; 11.4 µM in [6]. Moreover, the GI50 is 37.1 µM in [10] and 55.3 µM in [7]. Further, the TGI is 34.5 µM in [1]; 44.5 µM in assay [8]; 27.9 µM in [2]; more than 100 µM in assay [4]; more than 100 µM in [9]; 31 µM in [6]. Besides, the TGI in assay [10] and in assay [7] was more than 100 µM each time.

For `CCCCc1n(Cc2ccc3ccccc3n2)cc[n+]1Cc1ccc2ccccc2n1`, the GI50 was 0.535 µM in [1]; 1.52 µM in [8]; 0.946 µM in [2]; 0.801 µM in assay [3]; 2.58 µM in assay [4]; 1.87 µM in assay [9]. In addition, the GI50 in [5] is 0.807 µM; in assay [6], 1.71 µM; in assay [10], 0.813 µM. The TGI in [1] was 2.28 µM; in assay [8] it was 4.67 µM; in assay [2] it was 7.03 µM; in assay [3] it was 7.89 µM; in assay [4], 20.2 µM; in assay [9] it was 11.3 µM. The TGI came out at 11.2 µM in assay [5], 10.2 µM in assay [6] and 10.4 µM in [10].

For the compound `CCOC(=O)CNC(=O)OCc1ccccc1`, the TGI in [1], in assay [8], in assay [2], in [3], in assay [9] and in assay [6] was more than 100 µM throughout. Moreover, the TGI in [10] and in [7] was more than 100 µM each time.

Regarding `COc1cc(/C=C2\NC(=O)C3Cc4c(OC)c(C)c(OC)c(OC)c4C2N3C)c(OC)c(C)c1OC` (centres undefined), the TGI in assay [1], in assay [8], in [2], in assay [3], in [4] and in assay [6] was more than 100 µM in each case. Moreover, the TGI in assay [10] and in assay [7] was more than 100 µM in each case.

Take `N#CC(C(=O)CCC(=O)Nc1cccc(C(F)(F)F)c1)c1ccccc1` (centres undefined): the TGI in assay [8], in assay [2], in assay [3], in [4], in assay [9] and in [6] was more than 100 µM each time. Also, the TGI in assay [10] and in assay [7] was more than 100 µM in each case.

As for `CC[C@]12C=CCN3CC[C@@]4(c5ccc(OC)cc5N(C)[C@H]4[C@@](O)(C(=O)OC)[C@@H]1OC(=O)CCC(=O)O[C@H]1CC[C@H]4[C@@H]5CC[C@H]6CC(=O)CC[C@]6(C)[C@H]5CC[C@]14C)[C@@H]32`, the GI50 is 2.83 µM in [8]; 2.98 µM in assay [2]; 2.13 µM in assay [3]; 1.78 µM in assay [4]; 2.76 µM in [9]; 2.42 µM in assay [5]. Further, the GI50 was 2 µM in assay [6] and 3.34 µM in assay [10]. Also, the TGI was 11.7 µM in assay [8]; 57.7 µM in [2]; 6.06 µM in assay [3]; more than 100 µM in assay [4]; 10.6 µM in [9]; more than 100 µM in assay [5]. Moreover, the TGI is 22.2 µM in assay [6] and more than 100 µM in [10].

As for `Cc1ccc(/C=N/NS(=O)(=O)c2ccccc2)cc1C`, the TGI in assay [1], in [8], in [2], in assay [3], in assay [4] and in [9] was more than 100 µM each time. Moreover, the TGI in [6], in assay [10] and in assay [7] was more than 100 µM in each case.
